Data on 20 compounds can be found in publication PMC10780244, “Antileishmanial Effect of 1,5- and 1,8-Substituted Fused Naphthyridines” (Molecules, 2023).

Where only a bound is given, the exact number is not on record here.

The subject of one data set is axenic iRFP-L. infantum amastigotes from bone marrow cells. The data set is described as follows: Axenic amastigote viability assay (iRFP fluorescence, first screening).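 Note: compounds not inhibiting growth at the cut-off were deemed poorly active.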 The following applies: Leishmania infantum, Bone marrow cell, cut-off 25 µM, 72 h, read-out: Axenic Amastigotes (concentration with inhibition). It is filed as cell-based. The protocol: (§1) The 1,5- and 1,8-fused naphthyridine derivatives were evaluated as antileishmanial agents in assays using two forms of L. infantum amastigotes: axenic amastigotes recovered from bone marrow cells of infected BALB/c mice and intramacrophagic amastigotes obtained from splenic explants of the same subjects. The L. infantum strain used is a genetically modified strain previously engineered by our group to constitutively express the infrared protein iRFP from Rhodopseudomonas palustris bacteriophytochrome (iRFP L. infantum). This strain allows monitoring the viability of both forms of the parasite by quantifying the fluorescence emitted at 700 nm by the iRFP protein produced by living amastigotes.
(§2) Amastigotes obtained from mouse bone marrow cells were used to perform a first screening with the complete series of fused 1,5- and 1,8-naphthyridines. […] The toxicity of these selected compounds was assessed in non-infected splenic cells and the cytotoxic concentration (CC50) value obtained was used to calculate the selective index (SI). The oral tolerability of these same compounds was tested by calculating the viability of murine intestinal organoids exposed to two concentrations (50 and 25 µM).
To obtain iRFP-L. infantum axenic amastigotes, femur and tibia were carefully cut at both ends, and marrow cells were removed by passing PBS through the medullary cavity with a 29G needle. The bone marrow cell suspension was filtered through a 100 µm cell strainer and centrifuged at 3500× g for 10 min at room temperature. After centrifugation, cells were resuspended in amastigote culture medium: 15 mM KCl; 136 mM KH2PO4; 10 mM K2HPO4·3H2O; 0.5 mM MgSO4. 7H2O; 24 mM NaHCO3; 22 mM glucose; 1 mM glutamine, 1xRPMI 1640 vitamin mix (Sigma-Aldrich, Merck, Darmstadt, Germany), 10 mM folic acid, 100 mM adenosine, 1xRPMI amino acid mix (Sigma-Aldrich, Merck, Darmstadt, Germany), 5 mg/mL hemin, antibiotic cocktail, 25 mM MES and 10% FBS, and incubated at 37 °C.
To test the antileishmanial effect of naphthyridines on axenic amastigotes, 40 μL of a suspension containing 3 × 10^4 iRFP-L. infantum parasites per well were incubated with another 40 μL of the drugs dilutions in amastigote culture medium with 7.5% FBS. Incubations were performed in 384-well black microtiter plates with an optical bottom at 37 °C and 5% CO2 for 72 h. Solutions of 0.1% (v/v) DMSO and 10 μM AMB were used as negative and positive controls, respectively. The assays were performed by triplicate.
(§3) The viability of axenic and intramacrophage amastigotes was calculated measuring the fluorescence emitted at 700 nm by the iRFP protein from live parasites and recorded by an Odyssey infrared imaging system (Li-Cor, NE, USA). The fluorescence emitted by the negative control wells was considered 100% viability, whereas the fluorescence emitted by the positive control wells, was adjusted to 0% viability.
Take `c1ccc([C@@H]2c3ncccc3NC3c4ccccc4OCC32)cc1` (stereo partly shown) [Compound 4a]: the minimal effective concentration was > 25 µM.

As for `COc1ccc2c(n1)[C@@H](c1ccccc1)C1COc3ccccc3C1N2` (stereo partly shown) [Compound 4c], the minimal effective concentration was > 25 µM.

As to `c1ccc(-c2c3c(nc4cccnc24)-c2ccccc2OC3)cc1` [Compound 5a], the minimal effective concentration is > 25 µM.

With `Brc1ccc2nc3c(c(-c4ccccc4)c2n1)COc1ccccc1-3` [Compound 5b], the minimal effective concentration was > 25 µM.

Consider `COc1ccc2nc3c(c(-c4ccccc4)c2n1)COc1ccccc1-3` [Compound 5c], for which the minimal effective concentration was > 25 µM.

Turning to `O=C1Oc2ccccc2C2Nc3cccnc3[C@@H](c3ccccc3)C12` (stereo partly shown) [Compound 6a], the minimal effective concentration is > 25 µM.

For the compound `COc1ccc2c(n1)[C@@H](c1ccccc1)C1C(=O)Oc3ccccc3C1N2` (stereo partly shown) [Compound 6c], the minimal effective concentration was > 25 µM.

In the case of `O=c1oc2ccccc2c2nc3cccnc3c(-c3ccccc3)c12` [Compound 7a], the minimal effective concentration is > 25 µM.

Consider `O=c1oc2ccccc2c2nc3ccc(Br)nc3c(-c3ccccc3)c12` [Compound 7b], for which the minimal effective concentration was > 25 µM.

For `Cc1ccc(S(=O)(=O)N2Cc3c(nc4cccnc4c3-c3ccccc3)-c3ccccc32)cc1` [Compound 9a], the minimal effective concentration is > 25 µM.

Take `COc1ccc2nc3c(c(-c4ccccc4)c2n1)CN(S(=O)(=O)c1ccc(C)cc1)c1ccccc1-3` [Compound 9c]: the minimal effective concentration was > 25 µM.

Regarding `Cc1ccc(S(=O)(=O)N2Cc3c(nc4ccc(Br)nc4c3-c3ccccc3)-c3ccccc32)cc1` [Compound 9d], the minimal effective concentration is > 25 µM.

As for `c1ccc([C@@H]2c3cccnc3NC3c4ccccc4OCC32)cc1` (stereo partly shown) [Compound 10a], the minimal effective concentration is > 25 µM.

For `Cc1ccc2c(c1)C1Nc3ncccc3[C@@H](c3ccccc3)C1CO2` (stereo partly shown) [Compound 10c], the minimal effective concentration is > 25 µM.

Regarding `Fc1ccc2c(c1)-c1nc3ncccc3c(-c3ccccc3)c1CO2` [Compound 11b], the minimal effective concentration is > 25 µM.

As to `COc1ccc(-c2c3c(nc4ncccc24)-c2ccccc2OC3)cc1` [Compound 11c], the minimal effective concentration is > 25 µM.

On to `O=C1Oc2ccccc2C2Nc3ncccc3[C@@H](c3ccccc3)C12` (stereo partly shown) [Compound 12a], for which the minimal effective concentration is > 25 µM.

As to `O=C1Oc2ccccc2C2Nc3ncc(Br)cc3[C@@H](c3ccccc3)C12` (stereo partly shown) [Compound 12b], the minimal effective concentration is > 25 µM.

Consider `O=c1oc2ccc(F)cc2c2nc3ncccc3c(-c3ccccc3)c12` [Compound 13c], for which the minimal effective concentration was > 25 µM.

Turning to `Cc1ccc(S(=O)(=O)N2Cc3c(nc4ncccc4c3-c3ccccc3)-c3ccccc32)cc1` [Compound 15a], the minimal effective concentration was < 25 µM.

Another data set deals with intramacrophagic iRFP-L. infantum amastigotes from murine spleens. The data set is described as follows: Ex vivo intramacrophagic amastigote viability assay (iRFP fluorescence). The following applies: Leishmania infantum; ex vivo murine splenic explants, 72 h; read-out: Intracellular Amastigotes EC50. It is filed as cell-based, Leishmania infantum. The protocol:
as §1, §2
Intramacrophagic amastigotes were obtained by cutting spleens into small pieces that were incubated for 25 min with 0.5 mL of collagenase D (2 mg/mL) (Merck, Darmstadt, Germany) dissolved in 4.5 mL buffer (10 mM HEPES, pH 7.4, 150 mM NaCl, 5 mM KCl, 1 mM MgCl2 and 1.8 mM CaCl2). The cell suspension was filtered through a 100 µm cell strainer. After erythrocyte lysis (150 mM NH4Cl, 1 mM KHCO3, 0.1 mM EDTA), splenocytes were centrifuged three times at 500× g for 7 min at 4 °C, with PBS washes between each centrifugation. The splenocyte suspension containing intramacrophagic amastigotes was resuspended in RPMI medium (Gibco, Fisher Scientific, Waltham, MA, USA) supplemented with 20% FBS, 1 mM sodium pyruvate, 24 mM NaHCO3, 2 mM L-glutamine, 1× RPMI vitamins, 25 mM HEPES and antibiotic cocktail.
For the ex vivo intramacrophagic amastigote assay, 40 μL of one-half or one-third serial dilutions of each diluted in supplemented RPMI medium, were added to black 384-well optical-bottom black plates containing 40 μL of murine splenocytes obtained as described above. Positive controls (containing 10 μM of AMB) and negative controls (containing 0.1% v/v DMSO) were included. The plates were incubated at 37 °C and 5% CO2, for a maximum period of 72 h and the assays were performed by triplicate.
as §3
Fluorescence emitted by intramacrophage amastigotes were plotted against the drug concentration using the nonlinear fit analysis provided by the Sigma Plot 10.1 statistical package to obtain EC50 values.
With `COc1ccc2nc3c(c(-c4ccccc4)c2n1)CN(S(=O)(=O)c1ccc(C)cc1)c1ccccc1-3` [Compound 9c], the concentration giving a half-maximal response (EC50) is > 20 µM.

Turning to `Cc1ccc(S(=O)(=O)N2Cc3c(nc4ccc(Br)nc4c3-c3ccccc3)-c3ccccc32)cc1` [Compound 9d], the EC50 was > 20 µM.

Consider `c1ccc([C@@H]2c3cccnc3NC3c4ccccc4OCC32)cc1` (stereo partly shown) [Compound 10a], for which the EC50 is > 20 µM.

Consider `Cc1ccc2c(c1)C1Nc3ncccc3[C@@H](c3ccccc3)C1CO2` (stereo partly shown) [Compound 10c], for which the EC50 was > 20 µM.

On to `Fc1ccc2c(c1)-c1nc3ncccc3c(-c3ccccc3)c1CO2` [Compound 11b], for which the 50% effective concentration (EC50) was > 20 µM.

Consider `COc1ccc(-c2c3c(nc4ncccc24)-c2ccccc2OC3)cc1` [Compound 11c], for which the half-maximal effective concentration (EC50) is > 20 µM.

With `O=C1Oc2ccccc2C2Nc3ncccc3[C@@H](c3ccccc3)C12` (stereo partly shown) [Compound 12a], the concentration for a half-maximal effect (EC50) was > 20 µM.

For the compound `O=C1Oc2ccccc2C2Nc3ncc(Br)cc3[C@@H](c3ccccc3)C12` (stereo partly shown) [Compound 12b], the EC50 is > 20 µM.

Regarding `O=c1oc2ccc(F)cc2c2nc3ncccc3c(-c3ccccc3)c12` [Compound 13c], the EC50 is > 20 µM.

Turning to `Cc1ccc(S(=O)(=O)N2Cc3c(nc4ncccc4c3-c3ccccc3)-c3ccccc32)cc1` [Compound 15a], the EC50 turned out to be 67.4 ± 9.78 µM.

Staying with this data set, now noted: ratio CC50 (splenic macrophages) / EC50 (intramacrophagic amastigotes).
`Cc1ccc(S(=O)(=O)N2Cc3c(nc4ncccc4c3-c3ccccc3)-c3ccccc32)cc1` [Compound 15a]: the SI came out at 0.1.

The data set is the same for the next values; noted with them: summary in discussion.
`c1ccc([C@@H]2c3cccnc3NC3c4ccccc4OCC32)cc1` (stereo partly shown) [Compound 10a]: the “antileishmanial activity against Leishmania amastigotes (in words)” value was “not effective against Leishmania amastigotes”.

With `Cc1ccc(S(=O)(=O)N2Cc3c(nc4ncccc4c3-c3ccccc3)-c3ccccc32)cc1` [Compound 15a], the “antileishmanial activity against Leishmania amastigotes (in words)” value is on record as “significant antileishmanial activity”.

System in another data set: not listed separately
The data set is described as follows: Cytotoxicity in uninfected murine splenic cells (alamarBlue). Format: cell-based, mouse. The following applies: mouse; uninfected splenic cells, 72 h, alamarBlue; read-out: Mouse Splenic Macrophages CC50. On the procedure: (§4) Amastigotes obtained from mouse bone marrow cells were used to perform a first screening with the complete series of fused 1,5- and 1,8-naphthyridines. […] The toxicity of these selected compounds was assessed in non-infected splenic cells and the cytotoxic concentration (CC50) value obtained was used to calculate the selective index (SI). The oral tolerability of these same compounds was tested by calculating the viability of murine intestinal organoids exposed to two concentrations (50 and 25 µM). In order to assess the in vitro safety of the naphthyridines, cytotoxicity assays were carried out in ex vivo splenic explants from uninfected mice, which were prepared as previously described to obtain intramacrophagic amastigotes. Cells were seeded at a density of 1 × 10^6 cells per well in 96-well plates containing the prediluted compounds and incubated at 37 °C and 5% CO2 during 72 h. AlamarBlue assay (Invitrogen, Fisher Scientific, Waltham, MA, USA) was used to estimate cell viability following manufacturer’s recommendations. The assays were performed by triplicate. Absorbance of viable cells vs. compound concentrations were fitted by nonlinear analysis using the Sigma Plot 10.1 statistical package to calculate the cytotoxic concentration 50 (CC50) values. Selectivity index (SI) was calculated as the ratio between CC50 and the EC50 values of intramacrophagic amastigotes.
In general terms: Resazurin is reduced to fluorescent resorufin, in cell work by metabolically active cells.
Turning to `Cc1ccc(S(=O)(=O)N2Cc3c(nc4ncccc4c3-c3ccccc3)-c3ccccc32)cc1` [Compound 15a], the CC50 at 72 h turned out to be 8.78 ± 2.21 µM.

A further data set has as its system mouse splenic macrophages. The description is as above. Format: cell-based. Particulars: summary in discussion. On the procedure:
as §4
`Cc1ccc(S(=O)(=O)N2Cc3c(nc4ncccc4c3-c3ccccc3)-c3ccccc32)cc1` [Compound 15a]: the “toxicity (in words)” value was “significant toxicity”.

The subject of another data set is leishmanial DNA topoisomerase IB (LdTopIB). The data set is described as follows: Relaxation of supercoiled plasmid DNA assay. Format: biochemical, Leishmania. Particulars: 100 μM of compounds, 1 min at 37 °C, in words. The protocol: page 2: DNA DMSO 6b8a8b8c9b10b11a13a13b14a7c8d15b Relaxationof supercoiled plasmid DNA assay. Each reaction contains one unit of purified leishmanial DNA topisomeraseIB enzyme (LdTopIB), 100 μM ofcompounds, 0.5μg of supercoiled […], 10 mM Tris-HCl buffer pH 7.5, 5 mM MgCl 2, 0.1 mM EDTA, 15 μg/mL bovine serum albumin, 150 mM KCl. Reaction mixtures were incubated 1 min at 37 °C and stopped by the addition of 4 μL loading buffer (5% sarkosyl, 0.12% bromophenol blue, 25% glycerol). The topoisomerswere resolved in 1% agarose gels by electrophoresis in 0.1 M Tris borate EDTA buffer (pH 8.0) at 2 V/cm for 16 h and visualized with UV illumination after ethidium bromide (0.5μg/mL) staining. […]
Consider `Cc1ccc(S(=O)(=O)N2Cc3c(nc4ncccc4c3-c3ccccc3)-c3ccccc32)cc1` [Compound 15a], for which the LdTopIB inhibitory activity entry is recorded as “did not show leishmanial DNA topoisomerase IB (LdTopIB) inhibitory activity”.

A further data set has as its system recombinant human DNA topoisomerase IB (hTopIB).
Assay: not given
The following applies: cited from earlier work. Also on record: method as in PMID 31229877, PMID 32279049, PMID 33962152; dose or concentration left out as unconfirmed.
Turning to `c1ccc([C@@H]2c3cccnc3NC3c4ccccc4OCC32)cc1` (stereo partly shown) [Compound 10a], the “inhibitory effect on DNA relaxation activity of hTopIB” value was “had an inhibitory effect on DNA relaxation activity”.

`Cc1ccc(S(=O)(=O)N2Cc3c(nc4ncccc4c3-c3ccccc3)-c3ccccc32)cc1` [Compound 15a]: the “inhibitory effect on DNA relaxation activity of hTopIB” value is reported as “had an inhibitory effect on DNA relaxation activity”.

The test system of another data set is two cancer cell lines.
Assay: not given
Also on record: method as in PMID 31229877, PMID 32279049, PMID 33962152. Particulars: cited from earlier work.
As to `c1ccc([C@@H]2c3cccnc3NC3c4ccccc4OCC32)cc1` (stereo partly shown) [Compound 10a], the “cytotoxic effects on two cancer cell lines (concentration range)” value is 1 to 15 µM.

Consider `Cc1ccc(S(=O)(=O)N2Cc3c(nc4ncccc4c3-c3ccccc3)-c3ccccc32)cc1` [Compound 15a], for which the “cytotoxic effects on two cancer cell lines (concentration range)” value is 1 to 15 µM.

Usually EC50 stands for the concentration at which the effect is half-maximal. What is called CC50 is the concentration giving 50% cytotoxicity.
